Consider 16 compounds from US20240252463A1, “METHODS OF TREATING FIBROTIC PATHOLOGIES” (Mayo Foundation for Medical Education and Research, priority 2018, published 2024).

Counter-ions that a name gives are not always drawn. Like-named read-outs stand apart in the source and are kept apart here.

The subject of test [1] is αSMA. The test can be described thus: αSMA intensity (fibroblast activation) in IPF patient-derived lung fibroblasts + TGFβ. Type of test: cell-based, human. The settings on record: 1 μM + TGFβ, treated for 72 hours; for activity at 1 µM: Homo sapiens, SMA. The protocol: (§1) ImmunofluorescenceMicroscopy: Cells were plated into 96 well plates (Corning 3603) in their specific growth media and allowed to attach (8 hours). Media was then exchanged for the indicated conditions for each experiment. Cells were fixed in 3.7% formalin (Sigma-Aldrich), permeabilized in 0.25% Triton X-100 (Sigma-Aldrich) and then blocked with 1% BSA for 1 h. Cells or tissue sections were incubated overnight with mouse monoclonal antibody against αSMA (Sigma-Aldrich F3777), and/or a rabbit monoclonal antibody against YAP/TAZ (Cell Signaling D24E4) diluted 1:200 in PBS with 1% BSA. Cells were then washed and exposed to flourescence-conjugated secondary antibodies (Invitrogen) diluted 1:1000 and DAPI (Thermo Fisher Scientific). Images were taken with a Cytation5 (BioTek) microscope. For scoring αSMA positive cells (FIG. 3b), an observer blinded to the treatment conditions counted αSMA-positive cells using a visual threshold for bright fibrous staining; a minimum of 200 cells was counted for each condition. YAP/TAZ localization was quantified (FIG. 2, 6, 8) using Gen5 (Biotek) software. Images were taken at 4× magnification of both DAPI and YAP/TAZ staining. […] Quantification of double positive (YAP/TAZ and αSMA) cells from lung tissue sections (FIG. 4d) was performed similarly; however separate thresholds were established for both YAP/TAZ and αSMA. A minimum of 4000 cells was quantified for each mouse.

Test [2] has as its system YAP/TAZ. Put plainly: YAP/TAZ nuclear localization (immunofluorescence, automated imaging) in IPF patient-derived lung fibroblasts. Type of test: cell-based, human. The settings on record: 10 μM, treated 2 hours prior to fixation; for Nuclear localization (% of total cells) IPF-1: patient sample IPF-1; for Nuclear localization (% of total cells) IPF-2: patient sample IPF-2; for Nuclear localization (% of total cells) IPF-3: patient sample IPF-3; for Nuclear localization (% of total cells) IPF-4: patient sample IPF-4. Here is the method: 27A. […] IPF patient-derived lung fibroblasts cells treated 2 hours prior to fixation with diverse dopaminergic agonists (10 μM). N=4 different patient samples. % nuclear localization of YAP/TAZ was determined using automated imaging software. Scale bar represents 100 μm. 27C. cAMP measured in IPF patient-derived fibroblasts treated for 20 minutes with DHX. N=3. 27E.
as §1

Where [3] appears, read: patient sample IPF-1, read-out: αSMA intensity (% of DMSO control) IPF-1.
The mark [4] stands for this setting: patient sample IPF-2, read-out: αSMA intensity (% of DMSO control) IPF-2.
Setting [5] is: patient sample IPF-3, read-out: αSMA intensity (% of DMSO control) IPF-3.
[6] abbreviates: patient sample IPF-4, read-out: αSMA intensity (% of DMSO control) IPF-4.

As to “R(−)-2,10,11-Trihydroxyaporphine [R(−)-2,10,11-Trihydroxyaporphine•HBr]”, the “αSMA intensity (% of DMSO control) IPF-1” value in test [1] (patient sample IPF-1) was 2.888 % of DMSO control. Further, in test [1] (patient sample IPF-2), the “αSMA intensity (% of DMSO control) IPF-2” value is reported as 1.698 % of DMSO control. Moreover, the “αSMA intensity (% of DMSO control) IPF-3” value in test [1] (patient sample IPF-3) is on record as 7.646 % of DMSO control. Also, the “αSMA intensity (% of DMSO control) IPF-4” value in test [1] (patient sample IPF-4) is reported as 15.9942 % of DMSO control. Moreover, in test [2], the “Nuclear localization (% of total cells) IPF-1” value is listed as 13.71 % of total cells, the “Nuclear localization (% of total cells) IPF-2” value is 22.15 % of total cells, the “Nuclear localization (% of total cells) IPF-3” value is recorded as 24.15 % of total cells and the “Nuclear localization (% of total cells) IPF-4” value is on record as 17.75 % of total cells.
Consider `CNCCc1ccc(O)c(O)c1` [N-Methyldopamine•HCl, N-Methyldopamine], for which the activity at 1 µM in test [1] (setting [3]) was determined as 43.2%; in test [1] (setting [4]), 17.7%; in test [1] (setting [5]), 29%; in test [1] (setting [6]) it was 14.7%. For the same compound, the “Nuclear localization (% of total cells) IPF-1” value in test [2] is reported as 43.16 % of total cells. Besides, the “Nuclear localization (% of total cells) IPF-2” value in test [2] was 46.73 % of total cells. In addition, the “Nuclear localization (% of total cells) IPF-3” value in test [2] is given as 60.11 % of total cells. Moreover, the “Nuclear localization (% of total cells) IPF-4” value in test [2] is 70.44 % of total cells.
Take `Cc1cccc(C(=O)NCN2CCN(c3ccccc3C#N)CC2)c1.O=C(O)/C=C\C(=O)O` [PD 168077 maleate]: in test [1] (patient sample IPF-1), the “αSMA intensity (% of DMSO control) IPF-1” value is given as 75.27 % of DMSO control. Also, in test [1] (patient sample IPF-2), the “αSMA intensity (% of DMSO control) IPF-2” value was 56.15 % of DMSO control. Moreover, in test [1] (patient sample IPF-3), the “αSMA intensity (% of DMSO control) IPF-3” value is given as 75.77 % of DMSO control. The “αSMA intensity (% of DMSO control) IPF-4” value in test [1] (patient sample IPF-4) was 66.5 % of DMSO control. Further, in test [2], the “Nuclear localization (% of total cells) IPF-1” value is reported as 67.08 % of total cells, the “Nuclear localization (% of total cells) IPF-2” value is reported as 42.44 % of total cells, the “Nuclear localization (% of total cells) IPF-3” value was 63.68 % of total cells and the “Nuclear localization (% of total cells) IPF-4” value is listed as 68.4 % of total cells.
With `CN1C[C@@H](NS(=O)(=O)N(C)C)C[C@@H]2c3cccc4c3c(cn4C)C[C@H]21` [Mesulergine•HCl, Mesulergine], the activity at 1 µM in test [1] (setting [3]) amounted to 35.5%; in test [1] (setting [4]) it was 23.3%; in test [1] (setting [5]), 40%; in test [1] (setting [6]) it was 19.8%.
As to `CCCN(CCC)CCc1cccc2c1CC(=O)N2` [Ropinirole HCl, Ropinirole], the results for the activity at 1 µM in test [1] (setting [3]), in test [1] (setting [4]) and in test [1] (setting [6]) were 72.2%, 53.5% and 62%, respectively.
Regarding `CCCN1CCO[C@@H]2c3cc(O)ccc3OC[C@H]21.Cl` (racemic) [(±)-PD 128,907•HCl], the “αSMA intensity (% of DMSO control) IPF-1” value in test [1] (patient sample IPF-1) is 83.68 % of DMSO control. In addition, in test [1] (patient sample IPF-2), the “αSMA intensity (% of DMSO control) IPF-2” value is reported as 85.45 % of DMSO control. In addition, the “αSMA intensity (% of DMSO control) IPF-3” value in test [1] (patient sample IPF-3) is reported as 94.2538 % of DMSO control. In test [1] (patient sample IPF-4), the “αSMA intensity (% of DMSO control) IPF-4” value was 75.15 % of DMSO control. Also, in test [2], the “Nuclear localization (% of total cells) IPF-1” value is recorded as 60.13 % of total cells, the “Nuclear localization (% of total cells) IPF-2” value is 49.54 % of total cells, the “Nuclear localization (% of total cells) IPF-3” value is recorded as 78.48 % of total cells and the “Nuclear localization (% of total cells) IPF-4” value is 60.66 % of total cells.
`NCCc1ccc(O)cc1` [4-Hydroxyphenethylamine•HCl, 4-Hydroxyphenethylamine]: the activity at 1 µM in test [1] (setting [3]) was 99.7%; in test [1] (setting [4]) it was 93.4%; in test [1] (setting [5]), 95.7%; in test [1] (setting [6]) it was 88.3%.
As for “R(−)-Propylnorapomorphine [R(−)-Propylnorapomorphine•HCl]”, the “αSMA intensity (% of DMSO control) IPF-1” value in test [1] (patient sample IPF-1) is on record as 5.081 % of DMSO control. Besides, the “αSMA intensity (% of DMSO control) IPF-2” value in test [1] (patient sample IPF-2) is given as 1.879 % of DMSO control. In test [1] (patient sample IPF-3), the “αSMA intensity (% of DMSO control) IPF-3” value was 5.561 % of DMSO control. Besides, the “αSMA intensity (% of DMSO control) IPF-4” value in test [1] (patient sample IPF-4) was 19.96 % of DMSO control. Moreover, in test [2], the “Nuclear localization (% of total cells) IPF-1” value was 28.35 % of total cells, the “Nuclear localization (% of total cells) IPF-2” value is 26.71 % of total cells, the “Nuclear localization (% of total cells) IPF-3” value is listed as 42.74 % of total cells and the “Nuclear localization (% of total cells) IPF-4” value is recorded as 29.03 % of total cells.
In the case of `C=CCN1CCc2nc(N)sc2CC1.Cl.Cl` [B-HT 920•2HCl], the “αSMA intensity (% of DMSO control) IPF-1” value in test [1] (patient sample IPF-1) is recorded as 74.98 % of DMSO control. The “αSMA intensity (% of DMSO control) IPF-2” value in test [1] (patient sample IPF-2) is recorded as 58.97 % of DMSO control. Also, the “αSMA intensity (% of DMSO control) IPF-3” value in test [1] (patient sample IPF-3) was 70.12 % of DMSO control. Besides, the “αSMA intensity (% of DMSO control) IPF-4” value in test [1] (patient sample IPF-4) is on record as 54.23 % of DMSO control. Further, in test [2], the “Nuclear localization (% of total cells) IPF-1” value was 75.68 % of total cells, the “Nuclear localization (% of total cells) IPF-2” value is 46.9 % of total cells, the “Nuclear localization (% of total cells) IPF-3” value is on record as 64.79 % of total cells and the “Nuclear localization (% of total cells) IPF-4” value was 76.24 % of total cells.
As to `C=CCN1C[C@H](C(=O)N(CCCN(C)C)C(=O)NCC)C[C@@H]2c3cccc4[nH]cc(c34)C[C@H]21` [Cabergoline], the activity at 1 µM is 76.9% in test [1] (setting [3]), 48.1% in test [1] (setting [4]), 77.1% in test [1] (setting [5]) and 45.8% in test [1] (setting [6]).
With `CCCN[C@H]1CCc2nc(N)sc2C1` [Pramipexole Dihydrochloride Monohydrate, Pramipexole], the activity at 1 µM in test [1] (setting [3]) is 87.6%; in test [1] (setting [4]), 73.2%; in test [1] (setting [5]), 82.8%; in test [1] (setting [6]), 89.9%.
For the compound `Br.C=CCN1CCc2c(cc(O)c(O)c2Br)[C@@H](c2ccccc2)C1` [R(+)-6-BROMO-APB•HBr, R(+)-6-bromo-APB], the “αSMA intensity (% of DMSO control) IPF-1” value in test [1] (patient sample IPF-1) is given as 11.25 % of DMSO control. Also, the “αSMA intensity (% of DMSO control) IPF-2” value in test [1] (patient sample IPF-2) is 2.507 % of DMSO control. For the same compound, the “αSMA intensity (% of DMSO control) IPF-3” value in test [1] (patient sample IPF-3) is 0.8506 % of DMSO control. Further, the “αSMA intensity (% of DMSO control) IPF-4” value in test [1] (patient sample IPF-4) is recorded as 22.82 % of DMSO control. For the same compound, in test [2], the “Nuclear localization (% of total cells) IPF-1” value is 28.37 % of total cells, the “Nuclear localization (% of total cells) IPF-2” value is 38 % of total cells, the “Nuclear localization (% of total cells) IPF-3” value is 36 % of total cells and the “Nuclear localization (% of total cells) IPF-4” value is listed as 25.65 % of total cells.
Consider `c1cnc(N2CCN(Cc3ccc4c(c3)OCO4)CC2)nc1` [Piribedil•2HCl, Piribedil], for which the activity at 1 µM in test [1] (setting [3]) worked out at 70.4%; in test [1] (setting [4]) it was 61.5%; in test [1] (setting [5]), 71.5%; in test [1] (setting [6]), 41.2%.
On the same counts, the results for `CC(C)C[C@H]1C(=O)N2CCC[C@H]2[C@]2(O)O[C@](NC(=O)[C@@H]3C=C4c5cccc6[nH]c(Br)c(c56)C[C@H]4N(C)C3)(C(C)C)C(=O)N12` [Bromocriptine mesylate, Bromocriptine] are 54.1%, 53.6%, 61.1% and 34.1%.
In the case of `CCCN1C[C@H](CSC)C[C@@H]2c3cccc4[nH]cc(c34)C[C@H]21` [Pergolide mesylate, Pergolide], the activity at 1 µM in test [1] (setting [3]) was determined as 65%; in test [1] (setting [4]), 51.6%; in test [1] (setting [5]), 63.6%; in test [1] (setting [6]), 48.1%.
On the same counts, the results for `Oc1cc2c(cc1O)[C@@H](c1ccccc1)CNCC2` [SKF 38393•HBr] are 37.1%, 26.8%, 31.2% and 20.8%.
